Test results as given in patent publication US20050219340A1, “Actinic ray curable ink composition, image forming method and ink-jet recording apparatus using the same” (KONICA MINOLTA MEDICAL & GRAPHIC, INC., priority 2004, published 2005).

Test: physchem
Experimental: P(O/W), as described in the present invention, refers to the partition coefficient between 1-octanol and water and is as defined for the value which is treated as information to judge accumulativeness in the bodies of fish and shellfish, in the course of registration of new compounds, to conform in the Law Concerning Examination and Regulation of Manufacture etc. of Chemical Substances (a Japanese law), and is represented by the formula below; P(O/W)=CO/CW wherein CO represents the concentration (in mg/L) of a compound in the 1-octanol layer, while CW represents the concentration (in mg/L) of the above compound in the water layer.

SMILES | logP
COc1ccc([S+](c2ccc(OC)cc2)c2ccc(OC)cc2)cc1 [Compound S-1] | 0.1
COc1ccc([S+](c2ccc(C)cc2)c2ccc(OC)cc2)cc1 [Compound S-2] | 0.12
COc1ccc([S+](c2ccc(C)cc2)c2ccc(C)cc2)cc1 [Compound S-3] | 0.12
COc1ccc([S+](c2ccc(OC)cc2)c2ccc(Oc3ccc(C)cc3)cc2)cc1 [Compound S-4] | 0.15
